According to patent EP0112481A1, “Beta-lactam compound” (KYOWA HAKKO KOGYO CO., LTD, priority 1982, dated 1984):
In brackets after ≈: the same amount, converted by molar mass.

Legend:
Assay in all cases: Antibacterial effect, dilution method on Mueller-Hinton agar
Type in all cases: cell-based
[1] = test system: Krebsiella pneumoniae 8045; conditions: Mueller-Hinton agar (pH 7.0)
[2] = test system: Staphylococcus aureus 209-P; conditions: Mueller-Hinton agar (pH 7.0)
[3] = test system: Escherichia coli NIHJJC-2; conditions: NIHJJC2, Mueller-Hinton agar (pH 7.0)
[4] = test system: Citrobacter freundii F 1526; conditions: F1526, Mueller-Hinton agar (pH 7.0)
[5] = test system: Serratia marcescens T-26; conditions: T26, Mueller-Hinton agar (pH 7.0)
[6] = test system: Proteus vulgaris 6897; conditions: Mueller-Hinton agar (pH 7.0)
[7] = test system: Enterobacter cloacae F 1510; conditions: F1510, Mueller-Hinton agar (pH 7.0)
[8] = test system: Proteus mirabilis 1287; conditions: Mueller-Hinton agar (pH 7.0)

With `CON=C(C(=O)NC1C(=O)N2C(C(=O)O)=C(C=Cc3nnnn3C)CCC12)c1csc(N)n1` (racemic) [Compound of Ref. Ex. 9, (±)-6,7-cis-7-[2-(2-aminothiazol-4-yl)-2-syn-methoxyiminoacetamido]-3-[2-(1-methyl-1H-tetrazol-5-yl)vinyl]-1-azabicyclo [4.2.0] oct-2-en-8-oxo-2-carboxylic acid] the MIC [1] was 0.1 µg/mL (≈ 0.211 µM), the MIC [2] was 1.56 µg/mL (≈ 3.29 µM) and the MIC [3] was 0.01 µg/mL (≈ 0.0211 µM). For the same compound, the MIC [4] was 0.2 µg/mL (≈ 0.422 µM), the MIC [5] was 1.56 µg/mL (≈ 3.29 µM) and the MIC [6] was 0.01 µg/mL (≈ 0.0211 µM). The MIC [7] was 0.2 µg/mL (≈ 0.422 µM) and the MIC [8] was 0.01 µg/mL (≈ 0.0211 µM).
In the case of `CCOC(=O)C=CC1=C(C(=O)O)N2C(=O)C(NC(=O)C(=NOC)c3csc(N)n3)C2CC1` (racemic) [Compound of Ref. Ex. 10, (±)-6,7-cis-7-[2-(2-aminothiazol-4-yl)-2-syn-methoxyiminoacetamido]-3-(2-ethoxycarbonvlviayl)-1-azabicyclo [4.2.0]oct-2-en-8-oxo-2-carboxylic acid], the MIC [1] is reported as 0.39 µg/mL (≈ 0.841 µM), the MIC [2] is reported as 6.25 µg/mL (≈ 13.5 µM) and the MIC [3] is reported as 0.2 µg/mL (≈ 0.432 µM). For the same compound, the MIC [4] was 0.78 µg/mL (≈ 1.68 µM), the MIC [5] was 3.13 µg/mL (≈ 6.75 µM) and the MIC [6] was 0.01 µg/mL (≈ 0.0216 µM). The MIC [7] was 1.56 µg/mL (≈ 3.37 µM) and the MIC [8] was 0.1 µg/mL (≈ 0.216 µM).
